The source of these data is patent US20260335398A1, “METHODS FOR TREATING PANCREATIC CANCER WITH A COMBINATION OF DES-METHYL PATEAMINE A AND A CLASS I HDAC INHIBITOR” (Baylor University, priority 2023, published 2026).

In test [1] the test system is VGF and HBA2 loci. Briefly: DRIP-qPCR R-loop accumulation at VGF and HBA2 loci (FIG. 10A). The class given is cell-based. The settings on record: MIA PaCa-2, 6+3 hours. As to the method:
(§1) FIG. 10A illustrates the fold increase in the percent of input values in DRIP-qPCR for the VGF, HBA2, and SNRPN loci in MIA PaCa-2 cells treated with or without the combination or single agents. Genomic DNA was treated in vitro with or without RNaseH1 before immunoprecipitation using S9.6 antibody. Treatment was for 6+3 hours (i.e., 6-hour romidepsin followed by 3-hour washout with 2 nM DMPatA (combo) or without). Statistical significance was determined by 3-way ANOVA, ***p value<0.001. This experiment confirms the formation of R-loops at the investigated gene loci.
(§2) Romidepsin-induced histone hyperacetylation leads to the accumulation of R-loops that can increase genome instability. Because treatment of cells with the combination increased global transcription and led to persistence of histone hyperacetylation, it was postulated the treatment could similarly enhance the formation of R-loops and contribute to cell death. R-loop accumulation was further confirmed using DRIP-qPCR. […]
(§3) DRIP assay was performed according to the method previously described (Sanz L A, Chédin F. High-resolution, strand-specific R-loop mapping via S9. 6-based DNA-RNA immunoprecipitation and high-throughput sequencing. Nature protocols. 2019; 14(6):1734). […] Quantitative PCR was performed at the R-loop positive loci VGF and HBA2 genes and R-loop negative locus SNRPN gene with the primers listed in Table 1.
(In general: Quantitative PCR measures a nucleic acid by following its amplification.)

For test [2], the system named is SNRPN locus. In words: DRIP-qPCR R-loop accumulation at negative locus SNRPN (FIG. 10A). The class given is cell-based. The settings on record: MIA PaCa-2, 6+3 hours. As to the method: as §1, §2, §3
For test [3], the system named is MIA PaCa-2 and KLM cells. Briefly: Replication fork dynamics. The class given is cell-based. The settings on record: 24 hours. An excerpt: Having observed R-loop accumulation following treatment with the combination, it was hypothesized that hypertranscription, persistent hyperacetylation, and R-loop accumulation could increase the incidence of transcription replication conflicts, genome instability, and DNA damage and contribute to cell death. In response to DNA damage, replication protein A2 (RPA2) is phosphorylated at multiple sites by different protein kinases, including ATM, ATR, and DNA-PK, while the serine threonine-protein kinase, Chk1 (checkpoint kinase 1), is phosphorylated and activated by ATR. […] Drug treatments were for 24 hours (i.e., romidepsin treatment in combination or single agent romidepsin was 6 hours followed by 18-hour incubation with 2 nM DMPatA or with fresh medium respectively).

In test [4] the test system is H3K9ac. In words: Immunohistochemistry of H3K9ac in MIA PaCa-2 xenograft tumor tissue (FIG. 2C). The format is in vivo, athymic nude mice. The settings on record: IHC, tumors at end of study. An excerpt:
FIGS. 2A and 2B illustrate the results of a MIA PaCa-2 xenograft model of PDAC in male athymic nude mice. FIG. 2A compares tumor growth (mm^3) in mice treated with the indicated concentrations of combination, romidepsin and DMPatA using IP route and vehicles described in the materials and methods section below. FIG. 2B compares body weight (g) of mice treated with the combination and single agents following treatment. FIGS. 2C and 2D compare quantification of H3K9ac and c-MYC antibodies. Frozen sections from MIA PaCa-2 xenograft tumor tissues were subjected to immunohistochemical analysis using antibodies against H3K9ac, and c-MYC. Fluorescence images were captured using fluorescent microscopy and the fluorescent signal from H3K9ac and c-MYC antibodies were quantified. To quantify fluorescence intensity at least 500 cells per condition were measured for each antibody at 40× magnification. The median of the signal intensity is shown. Statistical significance was determined by one-way ANOVA using Tukey multiple comparisons test, ****p value<0.0001.
Additionally, snap-frozen tumor tissue samples from the mice treated with vehicle, single agents, and the combination were collected at the end of the study. These samples were sectioned, and the levels of H3K9ac and c-MYC proteins in tumor tissues were assessed by immunohistochemistry. […]

The test system of test [5] is cells. The settings on record: 50 nM, 6-hour exposure; cited from earlier work.

Take `C/C=C1\NC(=O)[C@H]2CSSCC/C=C/[C@H](CC(=O)N[C@H](C(C)C)C(=O)N2)OC(=O)[C@H](C(C)C)NC1=O` [romidepsin]: in test [1], the “R-loop accumulation (percent of input, DRIP-qPCR)” value is “significant increase in the percent of input”. Also, in test [2], the “R-loop accumulation at SNRPN” value is reported as “no accumulation of R-loops”. Besides, in test [3], the replication fork speed result is “significant reduction”. Besides, the “H3K9ac level in tumor” value in test [4] is “increased significantly”. Moreover, the “susceptibility of cells to romidepsin” value in test [5] is “Only a subset of cells susceptible”.
